± gives the expanded uncertainty stated by the source.
Experiments:
[1] = Crystal; DTA
[2] = Molar enthalpy of transition or fusion; settings: Crystal; DSC

Normal melting temperature [1]: 82 ± 0.6 °C
Molar enthalpy of transition or fusion [2]: 5.9 ± 0.143 kcal/mol
Structure (SMILES): CC(=O)CCc1ccc(O)cc1 [4-(4-hydroxyphenyl)butan-2-one]

Reference: the NIST ThermoML archive (doi:10.1007/s10765-017-2323-6)
